Columns and labels:
[1] = test system: elastase-induced emphysema; experiment: Repair of alveoli in the rat model of elastase-induced emphysema (morphometric analysis); format: in vivo, male Sprague Dawley rats; details: once daily starting 21 days post elastase injury
Procedure: RAR selective agonists were evaluated for its effects on alveolar repair in the rat model of elastase-induced emphysema in rats (D. Massaro et al. Nature Medicine (1997, 3, 675). Animals were divided into treatment groups of approximately eight. Lung inflammation and alveolar damage was induced in male Sprague Dawley rats by a single instillation of pancreatic elastase(porcine derived, Calbiochem) 2 U/gram body mass. Three weeks post injury, all-trans retinoic acid or RAR agonist was dissolved in dimethylsulfoxide (20 mg/ml) and stored at −20 C. Fresh working stocks were prepared daily by dilution in PBS to a final concentration of 2 mg/ml. Animals were dosed once daily with the retinoid by intraperitoneal injection or orally, starting 21 days post injury. Control groups were challenged with elastase and 21 days later treated with Vehicle (DMSO/PBS) for 14 days. Animals were sacrificed 24 hours after the last dose by exsanguination under deep anesthesia. The lungs were inflated with 10% neutral buffered formalin by intratracheal instillation at a constant rate (1 ml/gram body mass/min). The lung was excised and immersed in fixative for 24 hours prior to processing. Standard methods were used to prepare 5 um paraffin sections. Sections were stained with Hematoxylin and Eosin (H%E). Computerized Morphometric analysis was performed to determine the average alveolar size and alveolar number (Table 1).

[2] = test system: animal models of emphysema; details: cited from earlier work
[3] = test system: alveoli in rats; details: postnatal administration; cited from earlier work

melting point [°C] | Compound | further results
 | CCCCCC(/C=C/c1ccc(C(=O)O)cc1)c1ccc2c(c1)C(C)(C)CCC2(C)C (racemic) [(RS)-(E)-4-[3-(5,5,8,8-tetramethyl-5,6,7,8-tetrahydronaphthalen-2-yl)-oct-1-enyl]-benzoic Acid] | % repair area ([1]; 0.003 mg/kg p.o.): 53%; % repair area ([1]; 0.01 mg/kg p.o.): 49%; % repair area ([1]; 0.03 mg/kg p.o.): 32%
163 to 164 | CC1(C)CCC(C)(C)c2cc(C(Cc3ccccc3)C(=O)Oc3ccc(C(=O)O)cc3)ccc21 (racemic) [Example 3.2, (RS)-4-[3-Phenyl-2-(5,5,8,8-tetramethyl-5,6,7,8-tetrahydronaphthalen-2-yl)-propanoyloxy]-benzoic acid] | 
158 to 159 | CC1(C)CCC(C)(C)c2cc(C(Cc3ccc(C(F)(F)F)cc3)C(=O)Oc3ccc(C(=O)O)cc3)ccc21 (racemic) [Example 3.4, (RS)-4-[2-(5,5,8,8-Tetramethyl-5,6,7,8-tetrahydronaphthalen-2-yl)-3-(4-trifluoromethylphenyl)-propanoyloxy]-benzoic acid] | 
133 to 134 | CCOCCC(C(=O)Oc1ccc(C(=O)O)cc1)c1ccc2c(c1)C(C)(C)CCC2(C)C (racemic) [Example 3.5, (RS)-4-[4-Ethoxy-2-(5,5,8,8-tetramethyl-5,6,7,8-tetrahydronaphthalen-2-yl)-butanoyloxy]-benzoic acid] | 
203 to 204 | CC(/C=C/c1ccc(C(=O)O)cc1)c1ccc2c(c1)C(C)(C)CCC2(C)C (racemic) [Example 10.2, (RS)-(E)-4-[3-(5,5,8,8-Tetramethyl-5,6,7,8-tetrahydronaphthalen-2-yl)-but-1-enyl]-benzoic acid] | 
116 to 118 | CCCC(/C=C/c1ccc(C(=O)O)cc1)c1ccc2c(c1)C(C)(C)CCC2(C)C (racemic) [Example 10.3, (RS)-(E)-4-[3-(5,5,8,8-Tetramethyl-5,6,7,8-tetrahydronaphthalen-2-yl)-hex-1-enyl]-benzoic acid] | 
145 to 147 | CC=CCC(/C=C/c1ccc(C(=O)O)cc1)c1ccc2c(c1)C(C)(C)CCC2(C)C (racemic) [Example 10.4, (RS)-(E)-4-[3-(5,5,8,8-Tetramethyl-5,6,7,8-tetrahydronaphthalen-2-yl)-hepta-1,5-dienyl]-benzoic acid] | 
107 to 108 | CCCCC(/C=C/c1ccc(C(=O)O)cc1)c1ccc2c(c1)C(C)(C)CCC2(C)C (racemic) [Example 10.5, (RS)-(E)-4-[3-(5,5,8,8-Tetramethyl-5,6,7,8-tetrahydronaphthalen-2-yl)-hept-1-enyl]-benzoic acid] | 
61 to 78 | CC(C)CC(/C=C/c1ccc(C(=O)O)cc1)c1ccc2c(c1)C(C)(C)CCC2(C)C (racemic) [Example 10.7, (RS)-(E)-4-[5-Methyl-3-(5,5,8,8-tetramethyl-5,6,7,8-tetrahydronaphthalen-2-yl)-hex-1-enyl]-benzoic acid] | 
183 to 184 | CC1(C)CCC(C)(C)c2cc(C(/C=C/c3ccc(C(=O)O)cc3)Cc3ccccc3)ccc21 (racemic) [Example 10.8, (RS)-(E)-4-[4-Phenyl-3-(5,5,8,8-tetramethyl-5,6,7,8-tetrahydronaphthalen-2-yl)-but-1-enyl]-benzoic acid] | 
168 to 169 | CC1(C)CCC(C)(C)c2cc(C(/C=C/c3ccc(C(=O)O)cc3)Cc3ccc(Cl)cc3)ccc21 (racemic) [Example 10.9, (RS)-(E)-4-[4-(4-Chlorophenyl)-3-(5,5,8,8-tetramethyl-5,6,7,8-tetrahydronaphthalen-2-yl)-but-1-enyl]-benzoic acid] | 
78 to 79 | CC1(C)CCC(C)(C)c2cc(C(/C=C/c3ccc(C(=O)O)cc3)CCc3ccccc3)ccc21 (racemic) [Example 10.11, (RS)-(E)-4-[5-Phenyl-3-(5,5,8,8-tetramethyl-5,6,7,8-tetrahydronaphthalen-2-yl)-pent-1-enyl]-benzoic acid] | 
128 to 129 | CCCCCC(/C=C/c1ccc(C(=O)O)s1)c1ccc2c(c1)C(C)(C)CCC2(C)C (racemic) [Example 10.12, (RS)-(E)-5-[3-(5,5,8,8-Tetramethyl-5,6,7,8-tetrahydronaphthalen-2-yl)-oct-1-enyl]-thiophene-2-carboxylic acid] | 
168 to 169 | CC1(C)CCC(C)(C)c2cc(C(/C=C/c3ccc(C(=O)O)cc3)Cc3ccc(F)cc3)ccc21 (racemic) [Example 10.13, (RS)-(E)-4-[4-(4-Fluorophenyl)-3-(5,5,8,8-tetramethyl-5,6,7,8-tetrahydronaphthalen-2-yl)-but-1-enyl]-benzoic acid] | 
170 to 175 | COc1ccc(CC(/C=C/c2ccc(C(=O)O)cc2)c2ccc3c(c2)C(C)(C)CCC3(C)C)cc1 (racemic) [Example 10.15, (RS)-(E)-4-[4-(4-Methoxyphenyl)-3-(5,5,8,8-tetramethyl-5,6,7,8-tetrahydronaphthalen-2-yl)-but-1-enyl]-benzoic acid] | 
112 to 113 | CCCCCC(/C=C/c1ccc(C(=O)O)cc1F)c1ccc2c(c1)C(C)(C)CCC2(C)C (racemic) [Example 10.16, (RS)-(E)-3-Fluoro-4-[3-(5,5,8,8-tetramethyl-5,6,7,8-tetrahydronaphthalen-2-yl)-oct-1-enyl]-benzoic acid] | 
115 to 116 | CCCCCC(C#Cc1ccc(C(=O)O)cc1)c1ccc2c(c1)C(C)(C)CCC2(C)C (racemic) [Example 12, (RS)-4-[3-(5,5,8,8-tetramethyl-5,6,7,8-tetrahydronaphthalen-2-yl)-oct-1-ynyl]-benzoic Acid] | 
183 to 184 | CC1(C)CCSc2ccc(C(/C=C/c3ccc(C(=O)O)cc3)Cc3ccccc3)cc21 (racemic) [Example 40.2, (RS)-(E)-4-[3-(4,4-Dimethyl-thiochroman-6-yl)-4-phenylbut-1-enyl]-benzoic acid] | 
63 to 76 | CC1(C)CCSc2ccc(C(/C=C/c3ccc(C(=O)O)cc3)CCc3ccccc3)cc21 (racemic) [Example 40.3, (RS)-(E)-4-[3-(4,4-Dimethyl-thiochroman-6-yl)-5-phenylpent-1-enyl]-benzoic acid] | 
195 to 196 | CC1(C)CCC(C)(C)c2cc(CCOc3ccc(C(=O)O)cc3)ccc21 [Example 11.2, 4-[2-(5,5,8,8-Tetramethyl-5,6,7,8-tetrahydronaphthalen-2-yl)-ethyloxy]-benzoic acid] | 
 | CC1=C(/C=C/C(C)=C/C=C/C(C)=C/C(=O)O)C(C)(C)CCC1 [all-trans retinoic acid] | formation of new alveoli and elastic recoil [2]: can induce formation of new alveoli and return elastic recoil to near normal; number of alveoli [3]: increases the number of alveoli in rats

Compound | melting point [°C] | further results
COC(C(=O)Oc1ccc(C(=O)O)cc1)c1ccc2c(c1)C(C)(C)CCC2(C)C (racemic) [Example 15.2. d), (RS)-4-[methoxy-(5,5,8,8-tetramethyl-5,6,7,8-tetrahydro-naphthalen-2-yl)-acetoxy]-benzoic acid] | 190 to 195 | 
CCOC(C(=O)Oc1ccc(C(=O)O)cc1)c1ccc2c(c1)C(C)(C)CCC2(C)C (racemic) [Example 15.3. d), (RS)-4-[ethoxy-(5,5,8,8-tetramethyl-5,6,7,8-tetrahydro-naphthalen-2-yl)-acetoxy]-benzoic acid] | 123 to 125 | 
CCCOC(C(=O)Oc1ccc(C(=O)O)cc1)c1ccc2c(c1)C(C)(C)CCC2(C)C (racemic) [Example 15.4. d), (RS)-4-[propoxy-(5,5,8,8-tetramethyl-5,6,7,8-tetrahydro-naphthalen-2-yl)-acetoxy]-benzoic acid] | 155 to 156 | 
CCCCOC(C(=O)Oc1ccc(C(=O)O)cc1)c1ccc2c(c1)C(C)(C)CCC2(C)C (single isomer, unassigned) [Example 16 (from diastereomer I), (R)- or (S)-4-[butoxy-(5,5,8,8-tetramethyl-5,6,7,8-tetrahydro-naphthalen-2-yl)-acetoxy]-benzoic acid] | 112 to 113 | 
CCCCOC(C(=O)Oc1ccc(C(=O)O)cc1)c1ccc2c(c1)C(C)(C)CCC2(C)C (single isomer, unassigned) [Example 16 (from diastereomer II), (S)- or (R)-4-[butoxy-(5,5,8,8-tetramethyl-5,6,7,8-tetrahydro-naphthalen-2-yl)-acetoxy]-benzoic acid] | 113 to 114 | 

Source: patent US6603012B2, “RAR selective retinoid agonists” (Hoffmann-La Roche Inc., priority 2000, dated 2003)
